# Molecular target: T1, human Cot/Tpl2 kinase (Homo sapiens, UniProt P41279)
# T1 construct: human Cot/Tpl2 kinase construct encoding residues 30-398; 6His (N); made in house; host or cells: Sf9 insect cells, baculovirus system (BD Biosciences)
# Assay: Tpl2/Cot kinase assay: GST-MEK1 phosphorylation detected by ELISA (DELFIA Eu)
# Format: biochemical
# Details: Tpl2/Cot kinase, GST-MEK1 substrate, 50 uM ATP
# How it was run: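 His-tagged human Tpl2 from Sf9 cells, Ni-affinity and size-exclusion purified (monomer). 0.4 nM Tpl2 with 35 nM GST-MEK1, 50 uM ATP, MOPS pH 7.2, 1% DMSO, 1 h at 30° C; EDTA stop. MEK1 Ser217/221 phosphorylation detected by anti-phospho-MEK1 and Eu-labelled secondary ELISA; IC50 fitted.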
# T1 sequence (P41279 30-398): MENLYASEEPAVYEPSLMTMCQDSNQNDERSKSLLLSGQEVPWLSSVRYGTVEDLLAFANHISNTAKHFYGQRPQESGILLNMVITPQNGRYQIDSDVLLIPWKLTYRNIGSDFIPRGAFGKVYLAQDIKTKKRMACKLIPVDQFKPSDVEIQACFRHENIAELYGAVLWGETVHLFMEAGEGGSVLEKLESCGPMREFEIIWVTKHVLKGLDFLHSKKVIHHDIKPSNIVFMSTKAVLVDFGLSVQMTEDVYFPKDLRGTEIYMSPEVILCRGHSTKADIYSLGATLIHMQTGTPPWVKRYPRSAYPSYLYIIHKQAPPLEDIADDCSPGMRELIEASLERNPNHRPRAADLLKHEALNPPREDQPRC
row,Structure (SMILES),IC50 [nM]
1,N#Cc1cnc2c(Cl)cc(NCC3CCCN(C(=O)CN4CCCCCC4)C3)cc2c1Nc1ccc(F)c(Cl)c1 (centres unmarked) [Example 903],620
2,COCCNCC(=O)N1CCCC(CNc2cc(Cl)c3ncc(C#N)c(Nc4ccc(F)c(Cl)c4)c3c2)C1 (centres unmarked) [Example 904],260
3,N#Cc1cnc2c(Cl)cc(N(C=O)Cc3cn(CCCNC=O)nn3)cc2c1Nc1ccc(F)c(Cl)c1 [Example 915],170
4,CS(=O)(=O)NCCCn1cc(CN(C=O)c2cc(Cl)c3ncc(C#N)c(Nc4ccc(F)c(Cl)c4)c3c2)nn1 [Example 916],830
5,N#Cc1cnc2c(Br)cc(NCc3cn(CCc4ccncc4)nn3)cc2c1Nc1ccc(F)c(Cl)c1 [Example 919],1.3
6,CN(C)CCNCC(=O)N1CCCC(CNc2cc(Cl)c3ncc(C#N)c(Nc4ccc(F)c(Cl)c4)c3c2)C1 (centres unmarked) [Example 920],860

# Now from value to compound:
row,IC50 [nM],Structure (SMILES)
1,10,CCN1CCC[C@H]1Cn1cc(CNc2cc(Cl)c3ncc(C#N)c(Nc4ccc(F)c(Cl)c4)c3c2)nn1 [Example 895]
2,34,CC(C)N1CCC[C@H]1Cn1cc(CNc2cc(Cl)c3ncc(C#N)c(Nc4ccc(F)c(Cl)c4)c3c2)nn1 [Example 896]
3,110,CN(C)C(=O)N1CCC[C@@H]1Cn1cc(CNc2cc(Cl)c3ncc(C#N)c(Nc4ccc(F)c(Cl)c4)c3c2)nn1 [Example 897]
4,0.2,CC(=O)N1CCC[C@@H]1Cn1cc(CNc2cc(Cl)c3ncc(C#N)c(Nc4ccc(F)c(Cl)c4)c3c2)nn1 [Example 898]
5,0.6,CCNC(=O)N1CCC[C@@H]1Cn1cc(CNc2cc(Cl)c3ncc(C#N)c(Nc4ccc(F)c(Cl)c4)c3c2)nn1 [Example 899]
6,0.5,CN(C)C(=O)N1CCC[C@H]1Cn1cc(CNc2cc(Cl)c3ncc(C#N)c(Nc4ccc(F)c(Cl)c4)c3c2)nn1 [Example 900]
7,1,CC(=O)N1CCC[C@H]1Cn1cc(CNc2cc(Cl)c3ncc(C#N)c(Nc4ccc(F)c(Cl)c4)c3c2)nn1 [Example 901]
8,0.5,CCNC(=O)N1CCC[C@H]1Cn1cc(CNc2cc(Cl)c3ncc(C#N)c(Nc4ccc(F)c(Cl)c4)c3c2)nn1 [Example 902]
9,2.8,CS(=O)(=O)NCCCn1cc(CNc2cc(Cl)c3ncc(C#N)c(Nc4ccc(F)c(Cl)c4)c3c2)nn1 [Example 905]
10,1.3,N#Cc1cnc2c(Cl)cc(NCc3cn(CCCNS(=O)(=O)C(F)(F)F)nn3)cc2c1Nc1ccc(F)c(Cl)c1 [Example 906]
11,4.5,CC(C)S(=O)(=O)NCCCn1cc(CNc2cc(Cl)c3ncc(C#N)c(Nc4ccc(F)c(Cl)c4)c3c2)nn1 [Example 907]
12,1,CC(C)NC(=O)NCCCn1cc(CNc2cc(Cl)c3ncc(C#N)c(Nc4ccc(F)c(Cl)c4)c3c2)nn1 [Example 908]
13,1,CNC(=O)NCCCn1cc(CNc2cc(Cl)c3ncc(C#N)c(Nc4ccc(F)c(Cl)c4)c3c2)nn1 [Example 909]
14,0.7,CC(=O)NCCCn1cc(CNc2cc(Cl)c3ncc(C#N)c(Nc4ccc(F)c(Cl)c4)c3c2)nn1 [Example 910]
15,2.4,CC(C)C(=O)NCCCn1cc(CNc2cc(Cl)c3ncc(C#N)c(Nc4ccc(F)c(Cl)c4)c3c2)nn1 [Example 911]
16,1.9,N#Cc1cnc2c(Cl)cc(NCc3cn(CCCNC(=O)C4CC4)nn3)cc2c1Nc1ccc(F)c(Cl)c1 [Example 912]
17,45,CC(C)CN(CCCn1cc(CNc2cc(Cl)c3ncc(C#N)c(Nc4ccc(F)c(Cl)c4)c3c2)nn1)CC(C)C [Example 913]
18,52,N#Cc1cnc2c(Cl)cc(NCc3cn(CCCNC4CCCC4)nn3)cc2c1Nc1ccc(F)c(Cl)c1 [Example 914]
19,76,COCn1cc(CNc2cc(Br)c3ncc(C#N)c(Nc4ccc(F)c(Cl)c4)c3c2)nn1 [Example 917]
20,0.9,N#Cc1cnc2c(Cl)cc(NCc3cn(CCc4ccncc4)nn3)cc2c1Nc1ccc(F)c(Cl)c1 [Example 918]

# Same assay, conditions: Tpl2/Cot kinase, GST-MEK1 substrate, 50 uM ATP, 1 h at 30° C.; Table 2
row,Structure (SMILES),IC50 [nM]
1,N#Cc1cnc2c(Cl)cc(NCC3CCCN(C(=O)CNCc4cccnc4)C3)cc2c1Nc1ccc(F)c(Cl)c1 (centres unmarked) [Example 921],540
2,N#Cc1cnc2c(Cl)cc(NCC3CCCN(C(=O)CNc4cccnc4)C3)cc2c1Nc1ccc(F)c(Cl)c1 (centres unmarked) [Example 923],560
3,N#Cc1cnc2c(Cl)cc(NC[C@H]3C[C@H](O)CO3)cc2c1Nc1ccc(F)c(Cl)c1 [Example 932],410
4,C[C@H](CNc1ccccn1)Nc1cc(Cl)c2ncc(C#N)c(Nc3ccc(F)c(Cl)c3)c2c1 [Example 933],1990
5,N#Cc1cnc2c(Cl)cc(NC[C@H]3C[C@H](OCc4ccccc4)CO3)cc2c1Nc1ccc(F)c(Cl)c1 [Example 935],> 3000
6,N#Cc1cnc2c(Cl)cc(NC[C@H]3C[C@H](OCc4cccnc4)CO3)cc2c1Nc1ccc(F)c(Cl)c1 [Example 939],> 3000
7,N#Cc1cnc2c(Cl)cc(OCc3cn(C4CCNCC4)nn3)cc2c1Nc1ccc(F)c(Cl)c1 [Example 940],150
8,CC(C)(C)OC(=O)N1CCC(n2cc(COc3cc(Cl)c4ncc(C#N)c(Nc5ccc(F)c(Cl)c5)c4c3)nn2)CC1 [Example 941],520
9,CC(C)(C)OC(=O)N1CCC(n2cc(CNc3cc(Cl)c4ncc(C#N)c(NC5CCCC5)c4c3)nn2)CC1 [Example 943],> 3000
10,CN1CCCC1CCn1cc(CNc2cc(Cl)c3ncc(C#N)c(NC4CCCC4)c3c2)nn1 (centres unmarked) [Example 944],> 3000
11,N#Cc1cnc2c(Cl)cc(NCc3cn(CCN4CCCCCC4)nn3)cc2c1NC1CCCC1 [Example 945],630
12,CN(C)CCn1cc(CNc2cc(Cl)c3ncc(C#N)c(NC4CCCC4)c3c2)nn1 [Example 946],590
13,CN1CCCC1CCn1cc(CNc2cc(Cl)c3ncc(C#N)c(NC4CCCCCC4)c3c2)nn1 (centres unmarked) [Example 947],700
14,CC(C)(C)OC(=O)N1CCC(n2cc(CNc3cc(Cl)c4ncc(C#N)c(NC5CCCCCC5)c4c3)nn2)CC1 [Example 948],2310
15,N#Cc1cnc2c(Cl)cc(NCc3cn(CCN4CCCCCC4)nn3)cc2c1NC1CCCCCC1 [Example 949],460
16,CN(C)CCn1cc(CNc2cc(Cl)c3ncc(C#N)c(NC4CCCCCC4)c3c2)nn1 [Example 950],620
17,CN1CCCC1CCn1cc(CNc2cc(Cl)c3ncc(C#N)c(NC4CCC4)c3c2)nn1 (centres unmarked) [Example 951],460
18,CN1CCCC1CCn1cc(CNc2cc(Cl)c3ncc(C#N)c(NC4CCOCC4)c3c2)nn1 (centres unmarked) [Example 952],1130
19,CC(C)(C)OC(=O)N1CCC(n2cc(CNc3cc(Cl)c4ncc(C#N)c(NC5CCC5)c4c3)nn2)CC1 [Example 953],810
20,N#Cc1cnc2c(Cl)cc(NCc3cn(CCN4CCCCC4)nn3)cc2c1NC1CCC1 [Example 954],520
21,N#Cc1cnc2c(Cl)cc(NCc3cn(CCN4CCCCCC4)nn3)cc2c1NC1CCC1 [Example 955],440
22,CN(C)CCn1cc(CNc2cc(Cl)c3ncc(C#N)c(NC4CCC4)c3c2)nn1 [Example 956],730

# Results, then the compound that gave them:
row,IC50 [nM],Structure (SMILES)
1,1690,N#Cc1cnc2c(Cl)cc(NCC3CCCN(C(=O)CNCc4ccccn4)C3)cc2c1Nc1ccc(F)c(Cl)c1 (centres unmarked) [Example 922]
2,1320,N#Cc1cnc2c(Cl)cc(NCC3CCCN(C(=O)CCl)C3)cc2c1Nc1ccc(F)c(Cl)c1 (centres unmarked) [Example 924]
3,73,CC(C)(C)OC(=O)N1CCC(n2cc(CNc3cc(Cl)c4ncc(C#N)c(Nc5ccc(F)c(Cl)c5)c4c3)nn2)CC1 [Example 925]
4,7,CN(C)C(=O)N1CCC(n2cc(CNc3cc(Cl)c4ncc(C#N)c(Nc5ccc(F)c(Cl)c5)c4c3)nn2)CC1 [Example 929]
5,3.3,CC(=O)N1CCC(n2cc(CNc3cc(Cl)c4ncc(C#N)c(Nc5ccc(F)c(Cl)c5)c4c3)nn2)CC1 [Example 930]
6,18.9,CCNC(=O)N1CCC(n2cc(CNc3cc(Cl)c4ncc(C#N)c(Nc5ccc(F)c(Cl)c5)c4c3)nn2)CC1 [Example 931]
7,18,N#Cc1cnc2c(Cl)cc(NCc3cn(C4CCOC4=O)nn3)cc2c1Nc1ccc(F)c(Cl)c1 (centres unmarked) [Example 934]
8,130,N#Cc1cnc2c(Cl)cc(NCc3cn(CCC4CCN(CC5CC5)CC4)nn3)cc2c1Nc1ccc(F)c(Cl)c1 [Example 936]
9,150,N#Cc1cnc2c(Cl)cc(NCc3cn(CCC4CCN(C5CCC5)CC4)nn3)cc2c1Nc1ccc(F)c(Cl)c1 [Example 937]
10,200,N#Cc1cnc2c(Cl)cc(NCc3cn(CCC4CCN(C5CCCC5)CC4)nn3)cc2c1Nc1ccc(F)c(Cl)c1 [Example 938]
11,19,CC(C)N1CCC[C@H]1CCn1cc(CNc2cc(Br)c3ncc(C#N)c(Nc4ccc(F)c(Cl)c4)c3c2)nn1 [Example 942]
12,> 3000,CC(C)(C)OC(=O)N1CCN(CCn2cc(CNc3cc(Cl)c4ncc(C#N)c(Nc5ccc(F)c(Cl)c5)c4c3)nn2)CC1 [Example 957]
13,310,N#Cc1cnc2c(Cl)cc(NCc3cn(CCN4CCNCC4)nn3)cc2c1Nc1ccc(F)c(Cl)c1 [Example 958]
14,92,CC(=O)N1CCN(CCn2cc(CNc3cc(Cl)c4ncc(C#N)c(Nc5ccc(F)c(Cl)c5)c4c3)nn2)CC1 [Example 959]
15,130,CC(C)(C)CC(=O)N1CCN(CCn2cc(CNc3cc(Cl)c4ncc(C#N)c(Nc5ccc(F)c(Cl)c5)c4c3)nn2)CC1 [Example 960]
16,31,CN(C)C(=O)N1CCN(CCn2cc(CNc3cc(Cl)c4ncc(C#N)c(Nc5ccc(F)c(Cl)c5)c4c3)nn2)CC1 [Example 961]
17,23,CCNC(=O)N1CCN(CCn2cc(CNc3cc(Cl)c4ncc(C#N)c(Nc5ccc(F)c(Cl)c5)c4c3)nn2)CC1 [Example 962]
18,650,CN1CCN(CCn2cc(CNc3cc(Cl)c4ncc(C#N)c(Nc5ccc(F)c(Cl)c5)c4c3)nn2)CC1 [Example 963]
19,260,CCN1CCN(CCn2cc(CNc3cc(Cl)c4ncc(C#N)c(Nc5ccc(F)c(Cl)c5)c4c3)nn2)CC1 [Example 964]
20,430,CC(C)N1CCN(CCn2cc(CNc3cc(Cl)c4ncc(C#N)c(Nc5ccc(F)c(Cl)c5)c4c3)nn2)CC1 [Example 965]

# From patent US20060264460A1 (Wyeth, priority 2005, published 2006)
